Data from patent publication US11958821B2, “Phenethylamine compounds salts, polymorphic forms and methods of use thereof” (Terran Biosciences Inc., priority 2021, dated 2024).

Experiments:
[1] = test system: participants diagnosed with at least moderate post-traumatic stress disorder (PTSD); test: Double-blind, randomized, placebo-controlled clinical trial of MDE-assisted psychotherapy in PTSD; format: in vivo, human; settings: for Daytime sleepiness (ESS) / Clinician-rated functional impairment score (SDS) / Depression (HAM-D) / Change in CAPS-5 assessment: Study Conclusion; for Clinician-rated functional impairment score (SDS) / Depression (HAM-D) / Change in CAPS-5 assessment: vs placebo; for Change in CAPS-5 assessment: hydrochloride salt with psychotherapy; for Total dosage of drug to achieve significant mean reduction in CAPS-5: vs racemic MDE-treated subgroup
Method: A multicenter, randomized, double-blind, placebo-controlled trial is conducted to assess the efficacy and safety of MDE-assisted psychotherapy versus psychotherapy with placebo control in participants diagnosed with at least moderate post-traumatic stress disorder (PTSD).
This multicenter, randomized, double-blind, placebo-controlled trial is conducted at various sites in the United States with IRB approval from each study site. A flexible dose of MDE hydrochloride salt or placebo, followed by a supplemental half-dose unless contraindicated by patient's previous response or medical history, is also administered during the Treatment Period with psychotherapy in at least 3 blinded monthly Experimental Sessions. The Supplemental Dose extends the duration of drug effects on the participants during an Experimental Session. MDE test groups are further subdivided into specific groups receiving only racemic MDE hydrochloride salt, S-MDE hydrochloride salt, or R-MDE hydrochloride salt. An optional Risk Evaluation and Mitigation Strategy (REMS) Protocol may be implemented for the racemic MDE, R-MDE, and placebo-groups. The Treatment Period lasts for approximately 12 weeks. During the Treatment Period, each Experimental Session is followed by three Intervening Sessions of non-drug psychotherapy. Each Experimental Session involves an overnight stay. The Primary Outcome measure, the change in Clinician Administered PTSD Scale for DSM-5 (CAPS-5), is determined by a blinded Independent Rater (IR) pool multiple times throughout the study. The study consists of separate periods for each participant. Initially, prospective participants undergo a Screening Period involving an initial eligibility assessment, a medical history intake, informed consent, and enrollment of eligible participants. Next, a Preparation Period is undertaken for enrolled participants involving medication tapering and clinical baseline assessments to confirm each participant meets enrollment criteria. As part of the Preparation Period, a detailed assessment of co-morbidities to PTSD is recorded. Participants may remain on prescribed courses of selective serotonin reuptake inhibitor (SSRI) or serotonin and norepinephrine reuptake inhibitor (SNRI) treatment. Dosages and/or frequency of administration of a prescribed SSRI or SNRI may be adjusted to fit within study parameters. Participants may be required to taper a prescribed course of medication in order to maintain eligibility within the study. The Treatment Period consists of three monthly Experimental Sessions and associated Intervening Sessions of integrative behavioral psychotherapy. The Treatment Period lasts approximately 12 weeks. Following the Treatment Period is a Follow-up Period and Study Conclusion. During the Follow-up Period and Study Conclusion, participants complete 4 weeks with no study visits, followed by a Study Conclusion visit.
This study compares the effects of three blinded Experimental Sessions of psychotherapy in combination with flexible doses of MDE or placebo administered as described below. Non-drug preparatory and intervening psychotherapy sessions are also included. Patient's weight is determined for dosage calculation. Initial dose is 100 mg unless this will result in a dosage of less than 1.5 mg/kg of patient weight. Initial dose thereby adjusted upward in 25 mg increments to deliver the lowest dose possible of at least 1.5 mg/kg of patient weight. Initial dose for Experimental Session 2 and 3 is cumulative dose calculated by adding the initial dose plus REMS protocol dose used the previous Experimental Session for each patient.
Randomization occurs prior to the initiation of Experimental Session 1. Each participant is provided the next randomized number in a sequence by a blinded study monitor. Participants are then randomized, according to a computer-generated randomization schedule, 1:1:1:1 to racemic MDE, S-MDE, R-MDE, or placebo. […]

[2] = test system: Male Sprague-Dawley rats; test: Rat elevated zero-maze study with racemic MDE, R-MDE, S-MDE and chlordiazepoxide; settings: for Percentage of time spent in the open arms (% TO), significance vs placebo / Percentage of time spent in the open arms (% TO), trend: 2.5-30 mg/kg ip
Method: A reduction in the amount of activity on the open areas is considered to reflect an increase in anxiety. The ethologically-based behavior, stretched attend postures (SAP) from closed to open quadrants, is assessed as an index of anxiety. […] Animals
Male Sprague-Dawley 200-250 g (Envigo UK) rats were used. Animals were group-housed (5 per cage; cage size: 40×40×20 cm) in a temperature-controlled environment (22±2° C.), under a 12 h light-dark cycle (lights on: 08:00 hours) for one week prior to testing. Food and water were freely available. Number of animals per group=5.
The elevated 0-maze comprises a black Perspex annular platform (105 cm diameter, 10 cm width) elevated to 65 cm above ground level, divided equally into four quadrants. Two opposite quadrants are enclosed by clear red Perspex walls (27 cm high) on both the inner and outer edges of the platform, while the remaining two opposite quadrants are surrounded only by a Perspex “lip” (1 cm high) which serves as a tactile guide to animals on these open areas.
Subjects were weighed and tail marked before being injected. After a specified pretreatment time, subjects were placed in a closed quadrant and a 5-min test period were recorded on videotape for subsequent analysis. The maze was cleaned with 5% methanol/water solution and dried thoroughly between test sessions. Behavioural measures comprise percentage time spent on the open areas (% TO) and frequency of stretched attend postures (SAP) from closed to open quadrants. Animals are scored as being in the open area when all four paws were in an open quadrant and in the closed area only when all four paws have passed over the open-closed divide.
Thirty min later at T=0, rats were individually placed in a closed arm of the zero-maze and behavior was assessed by a “blind” observer using remote video monitoring over the subsequent 5 min. The animal was then removed and the maze carefully wiped with 5% methanol/water solution before the next test was begun.
Thirty min later at T=0, rats were individually placed in a closed arm of the zero-maze and behavior assessed by a “blind” observer using remote video monitoring over the subsequent 5 min. The animal was then removed and the maze carefully wiped with 5% methanol/water solution before the next test was begun.

[3] = Dynamic vapor sorption (DVS) analysis with post-DVS XRPD; format: physicochemical
Method: DVS analysis was carried out using a TA Instruments Q5000 Dynamic Vapor Sorption analyzer. The instrument was calibrated with standard weights and a sodium bromide standard for humidity. Approximately 5-25 mg of sample was loaded into a metal-coated quartz pan for analysis. The sample was analyzed at 25° C. with a maximum equilibration time of one hour in 10% relative humidity (RH) steps from 5 to 95% RH (adsorption cycle) and from 95 to 5% RH (desorption cycle). The movement from one step to the next occurred either after satisfying the equilibrium criterion of 0.01% weight change or, if the equilibrium criterion was not met, after one hour. The percent weight change values were calculated using Microsoft Excel®.

[4] = highest dose, ip, 30 min before 5-min test

Compound	Daytime sleepiness (ESS) [1]	Clinician-rated functional impairment score (SDS) [1]	Depression (HAM-D) [1]	Change in CAPS-5 assessment [1]	Frequency of stretched attend postures (SAP) ([2]; 2.5 mg/kg ip)	Frequency of stretched attend postures (SAP) ([2]; 5 mg/kg ip)	Frequency of stretched attend postures (SAP) ([2]; 10 mg/kg ip)	Frequency of stretched attend postures (SAP) ([2]; 15 mg/kg ip)	Frequency of stretched attend postures (SAP) ([2]; 30 mg/kg ip)	Percentage of time spent in the open arms (% TO), significance vs placebo [2]	Percentage of time spent in the open arms (% TO), trend [2]	Frequency of stretched attend postures (SAP) [2, 4]	Hygroscopicity by DVS ([3]; 25° C., 5 to 95% RH, listed as MBDB Maleate Form 1)	DVS weight gain ([3]; at 95% RH)	Post-DVS XRPD (form change) ([3]; solids after DVS analysis)	Total dosage of drug to achieve significant mean reduction in CAPS-5 [1]	Adverse anxiogenic incidents ([1]; vs placebo-treated controls)	Percentage of time spent in the open arms (% TO) ([2]; 15 mg/kg ip)	Frequency of stretched attend postures (SAP) ([2]; 20 mg/kg ip)	Frequency of stretched attend postures (SAP) ([2]; any dose vs placebo)
CCNC(C)Cc1ccc2c(c1)OCO2 (racemic) [racemic MDE, N-ethyl-3,4-methylenedioxyamphetamine]	significant improvement in lessening daytime sleepiness	significant improvement in clinician-rated functional impairment score	significant improvement depression	significant mean reduction in CAPS-5 assessment compared to the placebo group	significant increase in SAPs	did not show any difference from placebo	dose dependent decrease in SAPs and a significant anxiolytic effect	dose dependent decrease in SAPs and a significant anxiolytic effect	dose dependent decrease in SAPs and a significant anxiolytic effect	did not show significant changes when compared to placebo	trended towards reduced time in the open arms	decreased the frequency of SAPs as effectively as the benzodiazepine chlordiazepoxide								
CCC(Cc1ccc2c(c1)OCO2)NC.O=C(O)/C=C\C(=O)O (stereo not drawn) [MBDB maleate Form 1]													slightly hygroscopic	0.6%	no form change					
CCN[C@H](C)Cc1ccc2c(c1)OCO2 [R-MDE, (R)—N-ethyl-3,4-methylenedioxyamphetamine]	significant improvement in lessening daytime sleepiness	significant improvement in clinician-rated functional impairment score	significant improvement depression	significant mean reduction in CAPS-5 assessment compared to the placebo group	increase in the number of SAPs at the 2.5 mg/kg dose which trended towards significance	increase in SAPs at the 5 mg/kg dose range as well which trended toward significance	not significantly different from placebo	not significantly different from placebo	significant reduction in SAPs	did not show significant changes when compared to placebo	trended towards reduced time in the open arms	decreased the frequency of SAPs as effectively as the benzodiazepine chlordiazepoxide				lower total dosage of drug compared to the racemic MDE-treated subgroup				
CCN[C@@H](C)Cc1ccc2c(c1)OCO2 [S-MDE, (S)—N-ethyl-3,4-methylenedioxyamphetamine]	significant improvement in lessening daytime sleepiness	significant improvement in clinician-rated functional impairment score	significant improvement depression	significant mean reduction in CAPS-5 assessment compared to the placebo group		significantly decreased the number of SAPs	significantly decreased the number of SAPs	significantly decreased the number of SAPs		did not show significant changes when compared to placebo		decreased the frequency of SAPs as effectively as the benzodiazepine chlordiazepoxide				lower total dosage of drug compared to the racemic MDE-treated subgroup	without a significant increase in adverse anxiogenic incidents	large numerical increase in time in the open arms	significantly decreased the number of SAPs	did not increase the number of SAPs beyond placebo at any dose
